Measurements as given in US20130310256A1, “HERBICIDAL COMPOSITIONS COMPRISING 4-AMINO-3-CHLORO-5-FLUORO-6-(4-CHLORO-2-FLUORO-3-METHOXYPHENYL) PYRIDINE-2-CARBOXYLIC ACID OR A DERIVATIVE THEREOF AND VLCFA AND LIPID SYNTHESIS INHIBITING HERBICIDES” (DOW AGROSCIENCES LLC, priority 2008, published 2013).

What was measured:
SCPJU [1] = assay: Example V: field trial, in-water application to transplanted rice, Niigata, Japan; format: in vivo, Scirpus juncoides; settings: 31 DAA, submerged weeds
Method: Post and pre-emergence field trials were conducted in Niigata, Japan. Trial sites were located in commercially grown fields of transplanted rice (Oryza sativa, variety: Koshihikari) using standard herbicide small plot research methodology. The trial plot size was 2 meters (m)×2 m with 3 replications. The nursery plants were grown in the greenhouse using practical methods and transplanted into the field at the 2.5-leaf stage on May 7, 2012. The row and in-row spaces were 30 cm and 17 cm, respectively. The crop was grown using normal cultural practices for fertilization, water management and maintenance to ensure good growth of the crop and the weeds.
Treatments consisted of the benzyl ester of 4-amino-3-chloro-5-fluoro-6-(4-chloro-2-fluoro-3-methoxyphenyl)pyridine-2-carboxylic acid (Compound A) formulated as an SC (suspension concentrate) and various herbicidal components alone and in combination. Compound A benzyl ester was applied on an active ingredient basis. […]
Compound A benzyl ester SC was once diluted in 100 mL water in the 200 mL bottle/plot to achieve the desired rates and applied by water injection. […] Visual weed control was scored on a scale of 0 to 100 percent where 0 corresponds to no injury and 100 corresponds to complete kill. […]

SCPJU [2] = assay: Example I: postemergence foliar-applied weed control, greenhouse; format: in vivo, Schoenoplectus juncoides (Roxb.) Palla (Japanese bulrush)
SCPJU [3] = assay: Example II: in-water applied weed control, transplanted paddy rice, greenhouse; format: in vivo, Schoenoplectus juncoides (Roxb.) Palla (Japanese bulrush)
Method: Weed seeds or nutlets of the desired test plant species were planted in puddled soil (mud) prepared by mixing a shredded, non-sterilized mineral soil (50.5 percent silt, 25.5 percent clay, and 24 percent sand, with a pH of about 7.6 and an organic matter content of about 2.9 percent) and water at a 1:1 volumetric ratio. The prepared mud was dispensed in 365 mL aliquots into 16-ounce (oz.) non-perforated plastic pots with a surface area of 86.59 square centimeters (cm^2) leaving a headspace of 3 centimeters (cm) in each pot. Mud was allowed to dry overnight prior to planting or transplanting. Rice seeds were planted in Sun Gro MetroMix® 306 planting mixture, which typically has a pH of 6.0 to 6.8 and an organic matter content of about 30 percent, in plastic plug trays. Seedlings at the second or third leaf stage of growth were transplanted into 840 mL of mud contained in 32-oz. non-perforated plastic pots with a surface area of 86.59 cm^2 4 days prior to herbicide application. The paddy was created by filling the headspace of the pots with 2.5 to 3 cm of water. When required to ensure good germination and healthy plants, a fungicide treatment and/or other chemical or physical treatment was applied. The plants were grown for 4-22 days in a greenhouse with an approximate 14 hr photoperiod which was maintained at about 29′C during the day and 26° C. during the night. Nutrients were added as Osmocote® (19:6:12, N:P:K+ minor nutrients) at 2 g per 16-oz. pot and 4 g per 32-oz. pot. […]
Treatment requirements for each compound or herbicidal component were calculated based upon the rates being tested, the concentration of active ingredient or acid equivalent in the formulation, an application volume of 2 mL per component per pot, and an application area of 86.59 cm^2 per pot.
For formulated compounds, a measured amount was placed in an individual 100 or 200 mL glass vial and was dissolved in a volume of 1.25% (v/v) Agri-Dex® crop oil concentrate to obtain application solutions. […]

## CCS(=O)(=O)Oc1ccc2c(c1)C(C)(C)CO2 [Benfuresate, 2,3-dihydro-3,3-dimethyl-5-benzofuranyl ethanesulfonate]
SCPJU [1]; 600 gai/ha
  Visual Weed Control SCPJU Obs: 64.3%

## CCN(CC)C(=O)n1cnc(S(=O)(=O)c2c(C)cc(C)cc2C)n1 [Cafenstrole, N,N-diethyl-3-[(2,4,6-trimethylphenyl)sulfonyl]-1H-1,2,4-triazole-1-carboxamide]
SCPJU [2]; 26.25 gai/ha
  Visual Weed Control (%) - 21 DAA SCPJU Obs: 0%
SCPJU [2]; 52.5 gai/ha
  Visual Weed Control (%) - 21 DAA SCPJU Obs: 0%
SCPJU [2]; 105 gai/ha
  Visual Weed Control (%) - 21 DAA SCPJU Obs: 0%

## COc1c(Cl)ccc(-c2nc(C(=O)O)c(Cl)c(N)c2F)c1F [Compound A Acid, 4-amino-3-chloro-6-(4-chloro-2-fluoro-3-methoxyphenyl)-5-fluoropyridine-2-carboxylic acid]
SCPJU [3]; 8.75 gae/ha
  Visual Weed Control (%) - 20 DAA SCPJU Obs: 40%

## COc1c(Cl)ccc(-c2nc(C(=O)OCc3ccccc3)c(Cl)c(N)c2F)c1F [Compound A Benzyl Ester, benzyl ester of 4-amino-3-chloro-5-fluoro-6-(4-chloro-2-fluoro-3-methoxy-phenyl)pyridine-2-carboxylic acid]
SCPJU [2]; 4.38 gae/ha
  Visual Weed Control (%) - 21 DAA SCPJU Obs: 40%
SCPJU [1]; 100 gai/ha
  Visual Weed Control SCPJU Obs: 87.7%

## CCCOCCN(C(=O)CCl)c1c(CC)cccc1CC [Pretilachlor, 2-chloro-N-(2,6-diethylphenyl)-N-(2-propoxyethyl)acetamide]
SCPJU [3]; 75 gai/ha
  Visual Weed Control (%) - 20 DAA SCPJU Obs: 50%
SCPJU [3]; 150 gai/ha
  Visual Weed Control (%) - 20 DAA SCPJU Obs: 20%
